Results reported in ChEMBL document CHEMBL4715853 (J Med Chem, 2020).
Values after ≈ are worked out from the molar mass of the structure shown.

Experiments:
SARS-CoV-2 [1] = test: Antiviral activity against 2019-nCoV BetaCoV/Wuhan/WIV04/2019 infected in African green monkey VeroE6 cells assessed as reduction in viral yield preincubated with virus for 1 hr followed by cell infection and […] by qRT-PCR method; type: functional, organism-based; conditions: Severe acute respiratory syndrome coronavirus 2, BetaCoV/Wuhan/WIV04/2019, Vero C1008
[2] = Cytotoxicity against African green monkey Vero E6 cells by the CCK8 assay; type: cell-based, Vero C1008; conditions: chlorocebus sabaeus
[3] = Selectivity index, ratio of CC50 for African green monkey Vero E6 cells to EC50 for 2019-nCoV Beta CoV/Wuhan/WIV04/2019 infected in African green monkey Vero E6 cells; type: toxicity, Vero C1008; conditions: read-out: Ratio CC50/EC50
Human coronavirus OC43 = test: Antiviral activity against wild type HCoV-OC43 infected in BHK-21 cells incubated for 72 hrs by RT-PCR method; type: functional, cell-based; conditions: Betacoronavirus 1, BHK-21, 72 h
[4] = Antiviral activity against HCoV-NL63 infected in Rhesus macaque LLC-MK2 cells incubated for 72 hrs by RT-PCR method; type: functional, cell-based; conditions: Human coronavirus NL63, LLC-MK2, 72 h
in vitro [5] = conditions: hamster, BHK-21 cells
in vitro [6] = conditions: hamster, BHK-21 cells; remark: listed apart in the source
in vitro [7] = conditions: rhesus monkey, LLC-MK2 cells
in vitro [8] = conditions: rhesus monkey, LLC-MK2 cells; remark: listed apart in the source
[9] = Inhibition of SARS Coronavirus helicase pp1ab domain assessed as reduction in ATPase activity by phosphomolybdate-malachite green assay; parameters: species or system Severe acute respiratory syndrome-related coronavirus
[10] = Inhibition of SARS Coronavirus helicase pp1ab domain assessed as reduction in helicase activity using DT20Cy3/Release BHQ oligomers by FRET-based assay; parameters: species or system Severe acute respiratory syndrome-related coronavirus
[11] = Inhibition of SARS Coronavirus helicase expressed in Escherichia coli assessed as reduction in ATP hydrolysis preincubated for 5 mins followed by ATP and circular ssDNA M13 addition and measured after 10 mins by malachite green and ammonium molybdate reagent based assay; parameters: species or system Severe acute respiratory syndrome-related coronavirus
[12] = Inhibition of SARS Coronavirus helicase expressed in Escherichia coli assessed as reduction in dsDNA unwinding activity by FRET assay; parameters: species or system Severe acute respiratory syndrome-related coronavirus
[13] = Selectivity index, ratio of CC50 for African green monkey Vero E6 cells to EC50 for SARS-CoV infected in African green monkey Vero E6 cells; type: toxicity, Vero C1008; conditions: read-out: Ratio CC50/EC50
[14] = Cytotoxicity against African green monkey Vero E6 cells incubated for 2 days by the MTS assay; type: cell-based, Vero C1008; conditions: chlorocebus sabaeus, time 2 day
SARS-CoV [15] = test: Antiviral activity against SARS-CoV infected in African green monkey Vero E6 cells assessed as reduction in viral replication by ELISA; type: functional, organism-based; conditions: Severe acute respiratory syndrome-related coronavirus, Vero C1008
Human coronavirus 229E = test: Antiviral activity against HCoV-229E infected in human MRC-5 cells incubated for 96 hrs by XTT assay; type: functional, organism-based; conditions: MRC5, 96 h
[16] = Cytotoxicity against human MRC5 cells incubated for 96 hrs by XTT assay; type: cell-based
[17] = Selectivity ratio of CC50 for human MRC5 cells to EC50 for HCoV-229E infected in human MRC5 cells; type: toxicity, cell-based; conditions: read-out: Ratio CC50/EC50
SARS-CoV-2 [18] = test: Antiviral actvity against SARS-CoV2 infected in human assessed as improvement rate of chest at 400 mg, po administered twice daily cotreated with 100 mg ritonavir and measured after 14 days by computed tomography; type: functional, Severe acute respiratory syndrome coronavirus 2; conditions: time 14 day
[19] = Cytotoxicity against human Huh-7 cells incubated for 1 hr by MTS assay; type: cell-based
[20] = Cytotoxicity against African green monkey Vero E6 cells incubated for 3 days by the MTS assay; type: cell-based, Vero C1008; conditions: chlorocebus sabaeus, time 3 day
[21] = Toxicity in human infected with SARS-CoV2 assessed as adverse events at 400 mg, po administered twice daily cotreated with 100 mg ritonavir and measured after 14 days; type: organism-based; conditions: in vivo, 336 h, time 14 day
SARS-CoV [22] = test: Antiviral activity against SARS-CoV by cell-based assay; type: functional; conditions: Severe acute respiratory syndrome-related coronavirus

CC(=O)Oc1ccccc1C(=O)Nc1ncc([N+](=O)[O-])s1 [NITAZOXANIDE]
EC50 (SARS-CoV-2 [1]): 2.12 µM | CC50 [2]: > 35.5 µM | selectivity ratio [3]: > 16.7

CC[C@H]1CN2CCc3cc(OC)c(OC)cc3[C@@H]2C[C@@H]1C[C@H]1NCCc2cc(OC)c(OC)cc21 [EMETINE]
EC50 (Human coronavirus OC43): 0.3 µM | EC50 [4]: 1.43 µM | CC50 at 72 h (in vitro [5]): 2.69 µM | selectivity ratio (in vitro [6]): 9 | CC50 at 72 h (in vitro [7]): 3.63 µM | selectivity ratio (in vitro [8]): 2.5

COc1cc(CC(C)c2nc(C)c(O)c(C34OC5(O)CC(O)(CC(O)(C5)O3)O4)c2CO)ccc1O (centres undefined)
IC50 [9]: 2.8 µM | IC50 [10]: 5.4 µM

NS(=O)(=O)c1ccc(NC(=O)/C=C/c2ccco2)cc1
IC50 [11]: 2.09 µM | IC50 [12]: 13.2 µM

COC(=O)[C@H]1[C@H]2C[C@@H]3c4[nH]c5cc(OC)ccc5c4CCN3C[C@H]2C[C@@H](OC(=O)c2cc(OC)c(OC)c(OC)c2)[C@@H]1OC [RESERPINE]
selectivity ratio [13]: 7.3 | CC50 at 48 h [14]: 25 µM | IC50 (SARS-CoV [15]): 3.4 µM

NC(=O)c1ncn([C@@H]2O[C@H](CO)[C@@H](O)[C@H]2O)n1 [RIBAVIRIN]
CC50 [2]: > 400 µM

C[C@H]1O[C@@H](O[C@H]2CC[C@@]3(C)[C@@H](CC[C@]4(C)[C@@H]3C=CC3=C5CC(C)(C)CC[C@]5(CO)[C@H](O)C[C@]34C)[C@]2(C)CO)[C@H](O)[C@@H](O[C@@H]2O[C@H](CO)[C@@H](O)[C@H](O)[C@H]2O)[C@H]1O
EC50 (Human coronavirus 229E): 1.7 µM | CC50 at 96 h [16]: 383 µM | selectivity ratio [17]: 222

Nc1ccc(/N=N/c2ccccc2)c(N)n1 [PHENAZOPYRIDINE]
EC50 (Human coronavirus OC43): 1.9 µM | EC50 [4]: 2.02 µM | CC50 at 72 h (in vitro [5]): > 20 µM | selectivity ratio (in vitro [6]): > 10 | CC50 at 72 h (in vitro [7]): > 20 µM | selectivity ratio (in vitro [8]): > 9.9

Cc1cccc(C)c1OCC(=O)N[C@@H](Cc1ccccc1)[C@@H](O)C[C@H](Cc1ccccc1)NC(=O)[C@H](C(C)C)N1CCCNC1=O [LOPINAVIR]
Activity (SARS-CoV-2 [18]): 62.2% | CC50 at 1 h [19]: > 37.6 µM | CC50 at 72 h [20]: > 32 µM | Activity [21]: 55.6%

CC(C)[C@@H]1NC(=O)[C@H](C)OC(=O)[C@@H](C(C)C)NC(=O)[C@@H](C(C)C)OC(=O)[C@H](C(C)C)NC(=O)[C@H](C)OC(=O)[C@@H](C(C)C)NC(=O)[C@@H](C(C)C)OC(=O)[C@H](C(C)C)NC(=O)[C@H](C)OC(=O)[C@@H](C(C)C)NC(=O)[C@@H](C(C)C)OC1=O [VALINOMYCIN]
selectivity ratio [13]: 80 | CC50 at 48 h [14]: 68 µM | IC50 (SARS-CoV [15]): 0.85 µM

Nc1nc2c(ncn2CCC(CO)CO)c(=O)[nH]1 [PENCICLOVIR]
IC50 (SARS-CoV-2 [1]): 95.9 µM | CC50 [2]: > 400 µM | selectivity ratio [3]: > 4.2

C[C@@H]1O[C@@H](O[C@H]2[C@H](O[C@H]3CC[C@@]4(C)[C@@H](CC[C@]5(C)[C@@H]4CC=C4[C@@H]6CC(C)(C)CC[C@]6(C(=O)O)CC[C@]45C)[C@]3(C)CO)OC[C@H](O)[C@@H]2O)[C@H](O)[C@H](O)[C@H]1O [ALPHA-HEDERIN]
MIC (SARS-CoV [22]): 10 µM (≈ 7.51 µg/mL)

Cc1cc(/C=C/c2ccc3cc(N(C)C)ccc3[n+]2C)c(C)n1-c1ccccc1 [PYRVINIUM PAMOATE]
EC50 (Human coronavirus OC43): 3.21 µM | EC50 [4]: 3.35 µM
